Measured values reported in US10828301B2, “2,4-pyrimidinediamine compounds and their uses” (Rigel Pharmaceuticals, Inc, priority 2002, dated 2020).

Columns and labels:
Assay type in all cases: cell-based
[1] = test system: cultured human mast cells (CHMC); assay: CHMC low cell density IgE activation: tryptase and LTC4 assays; conditions: Homo sapiens, Mast cell, Low Density CHMC, anti-IgE activation
In short: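 Cultured human mast cells at low density (1000-1500 per well) rested 1 h at 37° C, then stimulated with anti-IgE for 30 min at 37° C. Supernatant tryptase measured with fluorogenic substrate (30 min, room temperature); LTC4 quantified by ELISA on diluted supernatant.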

[2] = test system: cultured human mast cells (CHMC); assay: CHMC low cell density ionomycin activation: tryptase assay; conditions: Homo sapiens, Mast cell, Low Density CHMC, ionomycin activation, tryptase readout; read-out: CHMC Ionomycin Tryptase
Jurkat cells = assay: Jurkat (T-cell) toxicity, light scatter; conditions: Homo sapiens, 18-24 hr, flow cytometric light scatter, read-out: Toxicity Jurkat Light Scat.
Method: Dilute Jurkat cells to 2×10^5 cells/ml in complete RPMI (10% heat-inactivated fetal bovine serum) media and incubate at 37° C., 5% CO2 for 18 hours. Add 65 ul cells at 7.7×10^5 cells/ml to a 96-well V-bottom plate (TC-treated, Costar) containing 65 ul 2× compound (final vehicle concentration is 0.5% DMSO, 1.5% MeOH). Mix, incubate plates for 18-24 hr at 37° C., 5% CO2. Toxicity was assessed by flow cytometric analysis of cellular light scatter

B-cell line BJAB = assay: BJAB (B-cell) toxicity, light scatter; conditions: Homo sapiens; BJAB B-cells, flow cytometric light scatter; read-out: Toxicity BJAB Light Scat.
Method: The B-cell line BJAB was cultured in log phase in RPMI1640+10% heat-inactivated fetal bovine serum, lx L-glutamine, lx penicillin, lx […] and 1× beta-mercaptoethanol at 37° C., 5% CO2. First, BJABs were harvested, spun and resuspended in culture medium to a concentration of 7.7×10^5 cells/mL. 65 uL cells were mixed with 65 uL compound, in duplicate and in the presence of 0.1% DMSO in a V-bottomed 96-well tissue culture plate. Cells were incubated with compound at various dilutions at 37° C., 5% CO2. Toxicity was assessed by flow cytometric analysis of cellular light scatter.

[3] = LTC4 readout, read-out: CHMC anti-IgE LTC4
[4] = tryptase readout, read-out: CHMC anti-IgE Tryptase

| Compound | IC50 [1, 3] | IC50 [1, 4] | IC50 [2] | IC50 (Jurkat cells) | IC50 (B-cell line BJAB) |
| --- | --- | --- | --- | --- | --- |
| Oc1cccc(Nc2nc(Nc3ccc4c(c3)OCCO4)ncc2Br)c1 [Compound R925797, 5-Bromo-N2-(3,4-ethylenedioxyphenyl)-N4-(3-hydroxyphenyl)-2,4-pyrimidinediamine] | 280 nM | 850 nM | > 10 µM | > 10 µM | > 10 µM |
| Cc1cccc(Nc2ncc(F)c(Nc3cccc(C)c3)n2)c1 [Compound R092788, N2,N4-bis(3-methylphenyl)-5-fluoro-2,4-pyrimidinediamine] | – | – | – | > 10 µM | > 10 µM |
| Oc1cccc(Nc2ccnc(Nc3cccc(O)c3)n2)c1 [Compound R926249, N2,N4-Bis(3-hydroxyphenyl)-2,4-pyrimidinediamine] | 250 nM | 500 nM | > 10 µM | > 10 µM | > 10 µM |
| Cc1cnc(Nc2cccc(O)c2)nc1Nc1cccc(O)c1 [Compound R926248, N2,N4-Bis(3-hydroxyphenyl)-5-methyl-2,4-pyrimidinediamine] | 760 nM | 900 nM | > 10 µM | > 10 µM | > 10 µM |

More lines, in order of falling IC50 [1, 3], values ahead:

| IC50 [1, 3] | IC50 [1, 4] | IC50 [2] | Compound | IC50 (Jurkat cells) | IC50 (B-cell line BJAB) |
| --- | --- | --- | --- | --- | --- |
| 700 nM | 650 nM | > 10 µM | CC(=O)Oc1cccc(Nc2ncc(F)c(Nc3cccc(OC(C)=O)c3)n2)c1 [Compound R926387, N2,N4-Bis(3-acetyloxyphenyl)-5-fluoro-2,4-pyrimidinediamine] | > 10 µM | > 10 µM |
| 180 nM | 225 nM | > 10 µM | Oc1cccc(Nc2ncc(Br)c(Nc3cccc(O)c3)n2)c1 [Compound R925778, N2,N4-Bis(3-hydroxyphenyl)-5-bromo-2,4-pyrimidinediamine] | > 10 µM | > 10 µM |
